Active and inactive are the calls of the source. The rule behind the calls is not given here.
How the values were obtained:
[1] = species on record: Mus musculus; assay: Antagonism of reserpine-induced hypothermia in mice; assay type: functional
[2] = test system: Mus musculus; assay: In vivo inhibition of uptake of nor epinephrine in mouse heart; value ranges from 0.01-0.15; assay type: functional
[3] = species on record: Mus musculus; assay: Antagonism of reserpine-induced hypothermia in mice value given as 0.01-0.15; assay type: functional
[4] = Lethal dose against mice after intraperitoneal administration; range = 31-53; assay type: toxicity, organism-based; settings: mouse, in vivo, ip
[5] = Lethal dose against mice after peroral administration; RANGE = 50-122; assay type: toxicity, organism-based; settings: mouse, in vivo, po
[6] = species on record: Rattus norvegicus; assay: Inhibition of uptake of 5-HT in rat brain slices; assay type: functional
[7] = species on record: Rattus norvegicus; assay: Inhibition of uptake of Dopamine in rat brain slices; assay type: functional
[8] = species on record: Rattus norvegicus; assay: Inhibition of uptake of nor epinephrine in rat brain slices; assay type: functional
[9] = test system: Mus musculus; assay: In vivo inhibition of uptake of nor epinephrine in mouse heart; assay type: functional
[10] = test system: Mus musculus; assay: Antagonism of reserpine-induced hypothermia in mice; I=Inactive at 10 mg/kg; assay type: functional, organism-based; parameters: dose 10 mg/kg
[11] = Lethal dose against mice after peroral administration; assay type: toxicity, organism-based; settings: mouse, in vivo, po
[12] = species on record: Mus musculus; assay: Antagonism of reserpine-induced hypothermia in mice; Short acting; assay type: functional
[13] = species on record: Mus musculus; assay: animal or person
[14] = species on record: Mus musculus; assay: Antagonism of reserpine-induced hypothermia in mice; I=inactive at 10 mg/ Kg; assay type: functional, organism-based
[15] = test system: Mus musculus; assay: In vivo inhibition of uptake of nor epinephrine in mouse heart; value ranges from 3.1-14.6; assay type: functional
[16] = species on record: Mus musculus; assay: Antagonism of reserpine-induced hypothermia in mice; value given as 0.15-0.6; assay type: functional
[17] = Lethal dose against mice after peroral administration; range = 111-182; assay type: toxicity, organism-based; settings: mouse, in vivo, po
[18] = test system: Mus musculus; assay: In vivo inhibition of uptake of nor epinephrine in mouse heart; value ranges from 0.01-0.14; assay type: functional
[19] = Lethal dose against mice after intraperitoneal administration; range = 25-28; assay type: toxicity, organism-based; settings: mouse, in vivo, ip

COC(=O)NC1=NCC(c2ccc(C(C)C)cc2)CN1 (stereo unspecified)
Min oral dose [1]: 1 mg/kg

NC1=NCC(c2ccccc2)CN1 (stereo unspecified)
ED50 [2]: 0.038 mg/kg | Min oral dose [3]: 0.15 mg/kg | LD50 [4]: 42 mg/kg | LD50 [5]: 78 mg/kg | IC50 [6]: 1.6 µM | IC50 [7]: 0.03 µM | IC50 [8]: 0.01 µM

CN(C)CCC=C1c2ccccc2CCc2ccccc21 [AMITRIPTYLINE]
ED50 [9]: 4.4 mg/kg | Min oral dose [1]: 0.15 mg/kg | IC50 [6]: 12 µM | IC50 [7]: 12 µM | IC50 [8]: 2.5 µM

COC(=O)NC1=NC(c2ccc(C)cc2)CCN1 (stereo unspecified)
Min oral dose [10]: inactive

CC(C)OC(=O)NC1=NCC(c2ccccc2)CN1 (stereo unspecified)
Min oral dose [1]: 0.04 mg/kg | LD50 [11]: > 1000 mg/kg

COC(=O)NC1=NC(c2ccccc2)CCN1 (stereo unspecified)
Min oral dose [12]: 2.5 mg/kg

COC(=O)NC1=NCC(c2ccc(Cl)cc2Cl)CN1 (stereo unspecified)
Min oral dose [1]: 10 mg/kg

COC(=O)NC1=NC(c2ccc(OC)cc2)CCN1 (stereo unspecified)
Min oral dose [1]: 10 mg/kg

CNCCCN1c2ccccc2CCc2ccccc21 [DESIPRAMINE]
IC50 [6]: 12 µM | IC50 [7]: 12 µM | ED50 [13]: 1.4 mg/kg

CCCOC(=O)NC1=NC(c2ccccc2)CCN1 (stereo unspecified)
Min oral dose [14]: inactive

CN(C)CCCN1c2ccccc2CCc2ccccc21 [IMIPRAMINE]
ED50 [15]: 6.7 mg/kg | Min oral dose [1]: 0.15 mg/kg | IC50 [6]: 16 µM | IC50 [7]: 12 µM | IC50 [8]: 4.6 µM

CCOC(=O)NC1=NCC(c2ccccc2)CN1 (stereo unspecified)
Min oral dose [1]: 0.04 mg/kg | LD50 [11]: > 1000 mg/kg

CN1CC(c2ccccc2)CN(C)C1=N (stereo unspecified)
Min oral dose [1]: 10 mg/kg

COC(=O)NC1=NCC(c2ccccc2)CN1C (stereo unspecified)
Min oral dose [16]: 0.15 mg/kg

COC(=O)NC1=NCC(c2c(Cl)cccc2Cl)CN1 (stereo unspecified)
Min oral dose [16]: 0.6 mg/kg

NC1=NCC(c2cccc(Br)c2)CN1 (stereo unspecified)
Min oral dose [1]: 10 mg/kg

COC(=O)NC1=NCC(c2ccccc2Cl)CN1 (stereo unspecified)
Min oral dose [1]: 10 mg/kg

NC1=NC(c2ccccc2)CCN1 (stereo unspecified)
Min oral dose [1]: 10 mg/kg

COC(=O)NC1=NCC(c2ccc(F)cc2)CN1 (stereo unspecified)
Min oral dose [1]: 0.04 mg/kg

COC(=O)NC1=NCC(c2ccccc2)CN1 (stereo unspecified)
LD50 [17]: 142 mg/kg | ED50 [18]: 0.038 mg/kg | Min oral dose [1]: 0.0006 mg/kg | LD50 [19]: 27 mg/kg | IC50 [6]: 160 µM | IC50 [7]: 24 µM | IC50 [8]: 4.9 µM

COC(=O)NC1=NC(c2ccccc2C(F)(F)F)CCN1 (stereo unspecified)
Min oral dose [1]: 10 mg/kg

COC(=O)NC1=NCC(c2cccc(Br)c2)CN1 (stereo unspecified)
Min oral dose [1]: 1 mg/kg

COC(=O)NC1=NC(c2ccccc2)CCN1C (stereo unspecified)
Min oral dose [1]: 10 mg/kg

CNC1=NCC(c2ccccc2)CN1 (stereo unspecified)
Min oral dose [1]: 1 mg/kg

CNC1=NCC(c2ccccc2)CN1C (stereo unspecified)
Min oral dose [1]: 10 mg/kg

COC(=O)N=C1N(C)CC(c2ccccc2)CN1C (stereo unspecified)
Min oral dose [1]: 10 mg/kg

COC(=O)NC1=NC(c2ccc(F)cc2)CCN1 (stereo unspecified)
Min oral dose [1]: 1 mg/kg

Reference: ChEMBL document CHEMBL1123004, “Synthesis and antidepressant profiles of phenyl-substituted 2-amino- and 2-[(alkoxycarbonyl)amino]-1,4,5,6-tetrahydropyrimidines” (J Med Chem, 1985)
